Legend:
HDAC1 = HDAC1 (Homo sapiens (Human), UniProt Q13547); test: HDAC enzyme activity inhibition (in vitro), HDAC1 Fluorimetric Drug Discovery Assay Kit; type: biochemical; details: samples at 100, 1000 and 10000 nM; 37° C. 60 minutes; fluorescence Ex 390, Em 460
HDAC6 human recombinant = HDAC6 human recombinant (Homo sapiens (Human), UniProt Q9UBN7); test: HDAC enzyme activity inhibition (in vitro), HDAC6 assay; type: biochemical; details: samples at 0.1, 1, 10, 100 and 1000 nM; 37° C. 60 minutes; fluorescence Ex 390, Em 460
Sequence of HDAC6 human recombinant (Q9UBN7 whole entry): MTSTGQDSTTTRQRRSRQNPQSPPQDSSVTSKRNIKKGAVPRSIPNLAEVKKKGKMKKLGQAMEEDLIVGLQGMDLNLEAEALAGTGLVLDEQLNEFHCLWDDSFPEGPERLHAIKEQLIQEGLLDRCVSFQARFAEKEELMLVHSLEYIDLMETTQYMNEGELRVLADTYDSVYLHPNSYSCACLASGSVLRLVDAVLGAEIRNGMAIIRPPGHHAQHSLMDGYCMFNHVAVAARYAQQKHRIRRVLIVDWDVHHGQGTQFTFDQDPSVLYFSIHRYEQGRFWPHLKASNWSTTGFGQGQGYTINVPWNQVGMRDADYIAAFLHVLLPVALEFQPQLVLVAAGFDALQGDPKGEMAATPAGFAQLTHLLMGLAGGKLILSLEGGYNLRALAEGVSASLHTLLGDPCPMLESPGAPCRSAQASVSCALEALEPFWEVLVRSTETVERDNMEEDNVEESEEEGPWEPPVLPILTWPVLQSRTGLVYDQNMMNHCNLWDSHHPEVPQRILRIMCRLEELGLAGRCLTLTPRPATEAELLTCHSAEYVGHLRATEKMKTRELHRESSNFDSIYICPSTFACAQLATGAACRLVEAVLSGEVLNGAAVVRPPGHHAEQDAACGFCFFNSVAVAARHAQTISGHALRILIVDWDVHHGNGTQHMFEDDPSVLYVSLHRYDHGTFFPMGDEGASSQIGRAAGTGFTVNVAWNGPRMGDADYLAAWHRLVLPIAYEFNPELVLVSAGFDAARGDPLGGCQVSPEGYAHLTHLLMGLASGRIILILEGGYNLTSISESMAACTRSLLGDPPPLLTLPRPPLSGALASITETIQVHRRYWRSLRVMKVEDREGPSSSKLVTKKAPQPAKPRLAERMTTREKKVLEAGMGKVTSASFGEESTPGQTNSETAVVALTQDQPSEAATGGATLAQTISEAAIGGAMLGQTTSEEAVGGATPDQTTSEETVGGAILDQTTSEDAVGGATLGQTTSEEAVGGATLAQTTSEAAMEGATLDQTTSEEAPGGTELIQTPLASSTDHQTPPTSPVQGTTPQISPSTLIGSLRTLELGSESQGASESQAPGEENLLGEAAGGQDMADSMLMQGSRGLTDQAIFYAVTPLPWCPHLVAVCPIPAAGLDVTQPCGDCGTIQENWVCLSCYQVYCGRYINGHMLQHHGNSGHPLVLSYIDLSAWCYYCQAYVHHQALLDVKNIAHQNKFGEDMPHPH

Sequence of HDAC1 (Q13547 whole entry): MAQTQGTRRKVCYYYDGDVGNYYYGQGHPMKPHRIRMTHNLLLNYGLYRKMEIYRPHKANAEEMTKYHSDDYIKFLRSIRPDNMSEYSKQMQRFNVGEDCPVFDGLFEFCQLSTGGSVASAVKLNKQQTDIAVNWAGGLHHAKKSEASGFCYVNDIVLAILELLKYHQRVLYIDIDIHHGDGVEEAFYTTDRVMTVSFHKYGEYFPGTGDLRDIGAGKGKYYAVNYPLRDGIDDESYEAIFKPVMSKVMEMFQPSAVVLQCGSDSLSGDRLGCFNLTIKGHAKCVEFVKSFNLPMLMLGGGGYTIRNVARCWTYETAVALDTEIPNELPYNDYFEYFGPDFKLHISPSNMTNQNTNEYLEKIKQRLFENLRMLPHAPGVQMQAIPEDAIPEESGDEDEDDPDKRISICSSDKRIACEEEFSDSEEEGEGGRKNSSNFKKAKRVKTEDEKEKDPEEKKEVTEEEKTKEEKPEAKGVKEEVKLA

CCN1CCC(c2ccc3c(c2)C(C)(C)C(=O)N(Cc2ccc(-c4nnc(C(F)F)o4)cn2)C3=O)CC1 [Compound 59, 2-((5-(5-(difluoromethyl)-1,3,4-oxadiazole-2-yl)pyridine-2-yl)methyl)-6-(1-ethylpiperidine-4-yl)-4,4-dimethylisoquinoline-1,3(2H,4H)-dione] was tested, and the IC50 (HDAC1) was over 10 µM and the IC50 (HDAC6 human recombinant) was 56 nM.
Work on CC(C)N1CCC(c2ccc3c(c2)C(C)(C)C(=O)N(Cc2ccc(-c4nnc(C(F)F)o4)cn2)C3=O)CC1 [Compound 60, 2-((5-(5-(difluoromethyl)-1,3,4-oxadiazole-2-yl)pyridine-2-yl)methyl)-6-(1-isopropylpiperidine-4-yl)-4,4-dimethylisoquinoline-1,3(2H,4H)-dione] yielded an IC50 (HDAC1) of over 10 µM and an IC50 (HDAC6 human recombinant) of 22 nM.
CC1(C)C(=O)N(Cc2ccc(-c3nnc(C(F)F)o3)cn2)C(=O)c2ccc(C3CCN(C4COC4)CC3)cc21 [Compound 61, 2-((5-(5-(difluoromethyl)-1,3,4-oxadiazole-2-yl)pyridine-2-yl)methyl)-4,4-dimethyl-6-(1-(oxetan-3-yl)piperidine-4-yl)isoquinoline-1,3(2H,4H)-dione] was tested, and the IC50 (HDAC1) was over 10 µM and the IC50 (HDAC6 human recombinant) was 35 nM.
With CC1(C)C(=O)N(Cc2ccc(-c3nnc(C(F)F)o3)cn2)C(=O)c2ccc(C3CCN(CC4CCOCC4)CC3)cc21 [Compound 62, 2-((5-(5-(difluoromethyl)-1,3,4-oxadiazole-2-yl)pyridine-2-yl)methyl)-4,4-dimethyl-6-(1-((tetrahydro-2H-pyran-4-yl)methyl)piperidine-4-yl)isoquinoline-1,3(2H,4H)-dione] the IC50 (HDAC1) was over 10 µM and the IC50 (HDAC6 human recombinant) was 61 nM.
CC1(C)C(=O)N(Cc2ccc(-c3nnc(C(F)F)o3)cn2)C(=O)c2ccc(C3CCN(C4CC5(COC5)C4)CC3)cc21 [Compound 63, 6-(1-(2-oxaspiro[3.3]heptane-6-yl)piperidine-4-yl)-2-((5-(5-(difluoromethyl)-1,3,4-oxadiazole-2-yl)pyridine-2-yl)methyl)-4,4-dimethylisoquinoline-1,3(2H,4H)-dione] was tested, and the IC50 (HDAC1) was over 10 µM and the IC50 (HDAC6 human recombinant) was 33 nM.
CC1(C)C(=O)N(Cc2ccc(-c3nnc(C(F)F)o3)cn2)C(=O)c2ccc(C3CCN(C4CCC4)CC3)cc21 [Compound 64, 6-(1-cyclobutylpiperidine-4-yl)-2-((5-(5-(difluoromethyl)-1,3,4-oxadiazole-2-yl)pyridine-2-yl)methyl)-4,4-dimethylisoquinoline-1,3(2H,4H)-dione] gave an IC50 (HDAC1) of over 10 µM and an IC50 (HDAC6 human recombinant) of 25 nM.
O=C1Cc2ccccc2C(=O)N1Cc1ccc(-c2nnc(C(F)F)o2)cn1 [Compound 65, 2-((5-(5-(difluoromethyl)-1,3,4-oxadiazole-2-yl)pyridine-2-yl)methyl)isoquinoline-1,3(2H,4H)-dione] showed an IC50 (HDAC1) of over 10 µM and an IC50 (HDAC6 human recombinant) of 133 nM.
COc1ccc(Cn2c(=O)n(Cc3ccc(-c4nnc(C(F)F)o4)cn3)c(=O)c3cc(F)ccc32)cc1 [Compound 66, 3-((5-(5-(difluoromethyl)-1,3,4-oxadiazole-2-yl)pyridine-2-yl)methyl)-6-fluoro-1-(4-methoxybenzyl)quinazoline-2,4(1H,3H)-dione] gave an IC50 (HDAC1) of over 10 µM and an IC50 (HDAC6 human recombinant) of 216 nM.
Work on O=c1[nH]c2ccc(F)cc2c(=O)n1Cc1ccc(-c2nnc(C(F)F)o2)cn1 [Compound 67, 3-((5-(5-(difluoromethyl)-1,3,4-oxadiazole-2-yl)pyridine-2-yl)methyl)-6-fluoroquinazoline-2,4(1H,3H)-dione] yielded an IC50 (HDAC1) of over 10 µM and an IC50 (HDAC6 human recombinant) of 62 nM.
CCN1CCC(c2ccc3c(c2)C(=O)N(Cc2ccc(-c4nnc(C(F)F)o4)cn2)C(=O)C3(C)C)CC1 [Compound 68, 2-((5-(5-(difluoromethyl)-1,3,4-oxadiazole-2-yl)pyridine-2-yl)methyl)-7-(1-ethylpiperidine-4-yl)-4,4-dimethylisoquinoline-1,3(2H,4H)-dione] gave an IC50 (HDAC1) of over 10 µM and an IC50 (HDAC6 human recombinant) of 20 nM.
CC(C)N1CCC(c2ccc3c(c2)C(=O)N(Cc2ccc(-c4nnc(C(F)F)o4)cn2)C(=O)C3(C)C)CC1 [Compound 69, 2-((5-(5-(difluoromethyl)-1,3,4-oxadiazole-2-yl)pyridine-2-yl)methyl)-7-(1-isopropylpiperidine-4-yl)-4,4-dimethylisoquinoline-1,3(2H,4H)-dione] was tested, and the IC50 (HDAC1) was over 10 µM and the IC50 (HDAC6 human recombinant) was 19 nM.
Cn1c(=O)n(Cc2ccc(-c3nnc(C(F)F)o3)cn2)c(=O)c2cc(F)ccc21 [Compound 70, 3-((5-(5-(difluoromethyl)-1,3,4-oxadiazole-2-yl)pyridine-2-yl)methyl)-6-fluoro-1-methylquinazoline-2,4(1H,3H)-dione] was tested, and the IC50 (HDAC1) was over 10 µM and the IC50 (HDAC6 human recombinant) was 59 nM.
O=c1c2cc(F)ccc2n(CCN2CCCCC2)c(=O)n1Cc1ccc(-c2nnc(C(F)F)o2)cn1 [Compound 71, 3-((5-(5-(difluoromethyl)-1,3,4-oxadiazole-2-yl)pyridine-2-yl)methyl)-6-fluoro-1-(2-(piperidine-1-yl)ethyl)quinazoline-2,4(1H,3H)-dione] was tested, and the IC50 (HDAC1) was over 10 µM and the IC50 (HDAC6 human recombinant) was 150 nM.
CC(C)(C)OC(=O)N1CCC(Cn2c(=O)n(Cc3ccc(-c4nnc(C(F)F)o4)cn3)c(=O)c3cc(F)ccc32)CC1 [Compound 72, Tert-butyl 4-((3-((5-(5-(difluoromethyl)-1,3,4-oxadiazole-2-yl)pyridine-2-yl)methyl)-6-fluoro-2,4-dioxo-3,4-dihydroquinazoline-1(2H)-yl)methyl)piperidine-1-carboxylate] was tested, and the IC50 (HDAC1) was over 10 µM and the IC50 (HDAC6 human recombinant) was 310 nM.
CN1CCC(Cn2c(=O)n(Cc3ccc(-c4nnc(C(F)F)o4)cn3)c(=O)c3cc(F)ccc32)CC1 [Compound 73, 3-((5-(5-(difluoromethyl)-1,3,4-oxadiazole-2-yl)pyridine-2-yl)methyl)-6-fluoro-1-((1-methylpiperidine-4-yl)methyl)quinazoline-2,4(1H,3H)-dione] showed an IC50 (HDAC1) of over 10 µM and an IC50 (HDAC6 human recombinant) of 98 nM.
Molecule CC1(C)C(=O)N(Cc2ccc(-c3nnc(C(F)F)o3)cn2)C(=O)c2ccc(-c3ccco3)cc21 [Compound 74, 2-((5-(5-(difluoromethyl)-1,3,4-oxadiazole-2-yl)pyridine-2-yl)methyl)-6-(furan-2-yl)-4,4-dimethylisoquinoline-1,3(2H,4H)-dione] has an IC50 (HDAC1) of over 10 µM and an IC50 (HDAC6 human recombinant) of 49 nM.
COCCn1c(=O)c2ccccc2n(Cc2ccc(-c3nnc(C(F)F)o3)cc2)c1=O [Compound 75, 1-(4-(5-(difluoromethyl)-1,3,4-oxadiazole-2-yl)benzyl)-3-(2-methoxyethyl)quinazoline-2,4(1H,3H)-dione] was tested, and the IC50 (HDAC1) was over 10 µM and the IC50 (HDAC6 human recombinant) was 368 nM.
For COCCn1c(=O)c2ccccc2n(Cc2ccc(-c3nnc(C(F)F)o3)cn2)c1=O [Compound 76, 1-((5-(5-(difluoromethyl)-1,3,4-oxadiazole-2-yl)pyridine-2-yl)methyl)-3-(2-methoxyethyl)quinazoline-2,4(1H,3H)-dione], the IC50 (HDAC1) was over 10 µM and the IC50 (HDAC6 human recombinant) was 79 nM.
O=c1c2ccccc2n(Cc2ccc(-c3nnc(C(F)F)o3)cn2)c(=O)n1CCc1ccccc1 [Compound 77, 1-((5-(5-(difluoromethyl)-1,3,4-oxadiazole-2-yl)pyridine-2-yl)methyl)-3-phenethylquinazoline-2,4(1H,3H)-dione] showed an IC50 (HDAC1) of over 10 µM and an IC50 (HDAC6 human recombinant) of 141 nM.
With O=c1c2ccccc2n(Cc2ccc(-c3nnc(C(F)F)o3)cn2)c(=O)n1Cc1ccc(-c2nnc(C(F)F)o2)cn1 [Compound 78, 1,3-bis((5-(5-(difluoromethyl)-1,3,4-oxadiazole-2-yl)pyridine-2-yl)methyl)quinazoline-2,4(1H,3H)-dione] the IC50 (HDAC1) was over 10 µM and the IC50 (HDAC6 human recombinant) was 40 nM.
CC(C)(C)OC(=O)N1CCN(c2ccc3c(c2)C(C)(C)C(=O)N(Cc2ccc(-c4nnc(C(F)F)o4)cn2)C3=O)CC12CC2 [Compound 79, tert-butyl 7-(2-((5-(5-(difluoromethyl)-1,3,4-oxadiazole-2-yl)pyridine-2-yl)methyl)-4,4-dimethyl-1,3-dioxo-1,2,3,4-tetrahydroisoquinoline-6-yl)-4,7-diazaspiro[2.5]octane-4-carboxylate] was tested, and the IC50 (HDAC1) was over 10 µM and the IC50 (HDAC6 human recombinant) was 113 nM.
For CN1CCN(c2ccc3c(c2)C(C)(C)C(=O)N(Cc2ccc(-c4nnc(C(F)F)o4)cn2)C3=O)CC12CC2 [Compound 80, 2-((5-(5-(difluoromethyl)-1,3,4-oxadiazole-2-yl)pyridine-2-yl)methyl)-4,4-dimethyl-6-(4-methyl-4,7-diazaspiro[2.5]octane-7-yl)isoquinoline-1,3(2H,4H)-dione], the IC50 (HDAC1) was over 10 µM and the IC50 (HDAC6 human recombinant) was 17 nM.
Molecule CC(=O)N1CCN(c2ccc3c(c2)C(C)(C)C(=O)N(Cc2ccc(-c4nnc(C(F)F)o4)cn2)C3=O)CC12CC2 [Compound 81, 6-(4-acetyl-4,7-diazaspiro[2.5]octane-7-yl)-2-((5-(5-(difluoromethyl)-1,3,4-oxadiazole-2-yl)pyridine-2-yl)methyl)-4,4-dimethylisoquinoline-1,3(2H,4H)-dione] has an IC50 (HDAC1) of over 10 µM and an IC50 (HDAC6 human recombinant) of 11 nM.
In the case of CC1(C)C(=O)N(Cc2ccc(-c3nnc(C(F)F)o3)cn2)C(=O)c2c(-c3ccco3)cccc21 [Compound 82, 2-((5-(5-(difluoromethyl)-1,3,4-oxadiazole-2-yl)pyridine-2-yl)methyl)-8-(furan-2-yl)-4,4-dimethylisoquinoline-1,3(2H,4H)-dione], the IC50 (HDAC1) is reported as over 10 µM and the IC50 (HDAC6 human recombinant) is reported as 92 nM.
CC1(C)C(=O)N(Cc2ccc(-c3nnc(C(F)F)o3)cn2)C(=O)c2c(N3CCOCC3)cccc21 [Compound 83, 2-((5-(5-(difluoromethyl)-1,3,4-oxadiazole-2-yl)pyridine-2-yl)methyl)-4,4-dimethyl-8-morpholinoisoquinoline-1,3(2H,4H)-dione] showed an IC50 (HDAC1) of over 10 µM and an IC50 (HDAC6 human recombinant) of 98 nM.
In the case of CC1(C)C(=O)N(Cc2ccc(-c3nnc(C(F)F)o3)cn2)C(=O)c2c(-c3ccncc3)cccc21 [Compound 84, 2-((5-(5-(difluoromethyl)-1,3,4-oxadiazole-2-yl)pyridine-2-yl)methyl)-4,4-dimethyl-8-(pyridine-4-yl)isoquinoline-1,3(2H,4H)-dione], the IC50 (HDAC1) is reported as over 10 µM and the IC50 (HDAC6 human recombinant) is reported as 79 nM.
